Assay results as given in paper PMC7821381, “Multi-Targeted Anticancer Activity of Imidazolate Phosphane Gold(I) Compounds by Inhibition of DHFR and TrxR in Breast Cancer Cells” (Frontiers in Chemistry, 2021).

What was measured:
MDA-MB231 cells = assay: MTT cell viability assay on MDA-MB231 cells; assay type: cell-based, human; conditions: MDA-MB231, 48 h, ± S. D.
Source text: (§1) Human MDA-MB-231 (ER–/PR–/HER2–) and SK-BR-3 (ER–/PR–/HER2+) cells were obtained from American Type Culture Collection (Rockville, MD) and cultured in Dulbecco's Modified Essential Medium (DMEM, Gibco, Life Technologies) supplemented with 10% fetal bovine serum (FBS, Gibco, Life Technologies) and 1% penicillin–streptomycin (Gibco, Life Technologies). A17 cells were established from a spontaneous lobular carcinoma that arose in an FVB/neuT mouse (Galiè et al., [2005]), and maintained in DMEM plus 20% FBS and 1% penicillin-streptomycin. Cells were cultured at 37°C under humidified atmosphere with 5% CO2.
Stock solutions were prepared for each gold(I) compound (50 mM) using dimethyl sulfoxide (DMSO) (Sigma-Aldrich) as solvent. The effects of gold(I) compounds on SKBR3, A17 and MDA-MB231 cells viability were evaluated by seeding, respectively, 10, ^*10^3, 2.5 ^*10^3, 7, ^*10^3 cells/well in 96 wells plates in complete medium (DMEM supplemented with FBS) and compared to those of cisplatin. The day after, fresh medium containing vehicle alone (DMSO, 1 % v/v final concentration) or increasing concentrations of each compound ranging from 0.1 to 100 μM was added. Cell viability was determined using a MTT [3-(4,5-dimethylthiazol-2-yl)-2,5-diphenyl-2H-tetrazolium bromide Sigma Aldrich, St. Louis, MO] assay, which is based on the conversion of MTT to formazan crystals by mitochondrial enzymes, after 24, 48, and 72 h. The formazan deposits were dissolved in DMSO and the absorbance of each well was measured at 540 nm in Multiskan Ascent 96/384 Plate Reader. Each drug concentration was evaluated with 8 replicates and each experiment was repeated three times. At the end of the experiments a dose–response curve was plotted, and the IC50 concentrations were determined. […] Quantitative data are presented as means ± SEM. […]
(§2) IC50 values were calculated for each of the cell lines tested, by fitting the concentration-effect curves data obtained in the three experiments with the sigmoid-Emax model using nonlinear regression, weighted by the reciprocal of the square of the predicted effect.

BLBC tumors = system: BLBC tumors; parameters: method as in Gambini et al., 2018; conditions: ref Gambini et al., 2018; cited from earlier work
SKBR3 cells = assay: MTT cell viability assay on SKBR3 cells; assay type: cell-based, human; conditions: for IC50: SKBR3, 48 h, ± S. D.; for cytotoxic activity in MTT screening: SKBR3 cells, 72 h (Figure 1S) and 48 h (Figure 2)
Source text: as §1
Stock solutions were prepared for each gold(I) compound (50 mM) using dimethyl sulfoxide (DMSO) (Sigma-Aldrich) as solvent. The effects of gold(I) compounds on SKBR3, A17 and MDA-MB231 cells viability were evaluated by seeding, respectively, 10, ^*10^3, 2.5 ^*10^3, 7, ^*10^3 cells/well in 96 wells plates in complete medium (DMEM supplemented with FBS) and compared to those of cisplatin. The day after, fresh medium containing vehicle alone (DMSO, 1 % v/v final concentration) or increasing concentrations of each compound ranging from 0.1 to 100 μM was added. Cell viability was determined using a MTT [3-(4,5-dimethylthiazol-2-yl)-2,5-diphenyl-2H-tetrazolium bromide Sigma Aldrich, St. Louis, MO] assay, which is based on the conversion of MTT to formazan crystals by mitochondrial enzymes, after 24, 48, and 72 h. The formazan deposits were dissolved in DMSO and the absorbance of each well was measured at 540 nm in Multiskan Ascent 96/384 Plate Reader. Each drug concentration was evaluated with 8 replicates and each experiment was repeated three times. At the end of the experiments a dose–response curve was plotted, and the IC50 concentrations were determined. Statistical analysis was performed using One-Way ANOVA analysis of variance followed by Dunnett's Multiple Comparison Test. Quantitative data are presented as means ± SEM. Differences were considered significant at ^*P ≤ 0.0332; ^**P ≤ 0.0021; ^***P ≤ 0.0002; ^****P ≤ 0.0001.
as §2

Human apoTF (ATF) = biological target: T1, Human apoTF (ATF) (Homo sapiens, UniProt P02787); assay: Transferrin (ATF) fluorescence quenching; assay type: binding; conditions: Stern-Volmer constant, Tris-HCl pH 7.4, 25°C
T1 construct: purchased Sigma Aldrich
T1 sequence (P02787 20-698): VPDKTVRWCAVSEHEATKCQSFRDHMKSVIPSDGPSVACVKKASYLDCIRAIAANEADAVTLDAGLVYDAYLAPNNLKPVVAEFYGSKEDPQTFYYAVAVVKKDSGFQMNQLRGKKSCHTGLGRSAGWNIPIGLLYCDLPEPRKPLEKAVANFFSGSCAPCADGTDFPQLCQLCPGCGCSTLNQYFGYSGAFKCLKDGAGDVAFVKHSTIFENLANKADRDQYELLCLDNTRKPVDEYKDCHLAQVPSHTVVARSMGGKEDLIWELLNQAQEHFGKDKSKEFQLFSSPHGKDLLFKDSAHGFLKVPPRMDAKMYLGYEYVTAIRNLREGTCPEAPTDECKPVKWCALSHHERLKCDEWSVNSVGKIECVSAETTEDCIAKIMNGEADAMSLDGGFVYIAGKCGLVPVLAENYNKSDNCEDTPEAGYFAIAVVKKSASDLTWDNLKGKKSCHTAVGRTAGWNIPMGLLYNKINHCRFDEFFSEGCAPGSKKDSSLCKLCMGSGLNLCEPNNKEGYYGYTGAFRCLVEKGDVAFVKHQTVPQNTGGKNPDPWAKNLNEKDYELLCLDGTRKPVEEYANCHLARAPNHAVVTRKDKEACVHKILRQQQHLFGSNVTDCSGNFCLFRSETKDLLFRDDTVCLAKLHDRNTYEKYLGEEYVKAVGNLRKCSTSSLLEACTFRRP
Experimental: Human apoTF (ATF) was purchased from Sigma Aldrich and its concentration was determined by measuring the absorbance at 278 nm (ε = 92,300 M^−1 cm^−1). To evaluate if compounds 5 and 6 were able to bind to ATF in vitro, fluorescence spectra were recorded from 300 nm to 450 nm upon tryptophan excitation at 285 nm. Fluorimetric titrations were performed by titrating a 2 mL sample (prepared in 10 mM Tris-HCl buffer pH 7.4, 10 mM NaCl) containing human ATF (12.5 μM) with incremental additions of different aliquots of gold-complexes (5 mM in DMSO). Protein fluorescence intensity was recorded after each successive addition of complex solution and equilibration (5 min). The value of Stern Volmer constants of the different metal complexes to ATF were evaluated following Equation 3 and fluorescent values were corrected by Equation 2. All titrations were performed at room temperature (25°C) and averages between two trials are reported.

DAPI-ct-DNA complex = assay: Minor groove displacement assay with DAPI (DAPI-ct-DNA); assay type: binding, calf; conditions: competitive DAPI displacement, fluorescence quenching, pH 7.4
Experimental: The changes in the emission spectra of DAPI complex with the DNA in 10 mM tris-HCl buffer at pH 7.4, 10 mM NaCl, were monitored upon addition of increasing concentrations of gold-compounds 5 and 6 at room temperature. Fluorescence quenching data were evaluated after excitation of DAPI-ct-DNA complex at 338 nm and recording the spectra from 400 to 600 nm. Values of Ksv constants were evaluated using Equation 3 and the quenching fluorescence values obtained were corrected according to Equation 2.

[1] = biological target: T2, bovine serum albumin (BSA) (Bos taurus, UniProt P02769); assay: BSA tryptophan fluorescence quenching; assay type: binding; conditions: Stern-Volmer constant, Tris-HCl pH 7.4, room temperature
T2 construct: purchased Sigma Aldrich
T2 sequence (P02769 25-607): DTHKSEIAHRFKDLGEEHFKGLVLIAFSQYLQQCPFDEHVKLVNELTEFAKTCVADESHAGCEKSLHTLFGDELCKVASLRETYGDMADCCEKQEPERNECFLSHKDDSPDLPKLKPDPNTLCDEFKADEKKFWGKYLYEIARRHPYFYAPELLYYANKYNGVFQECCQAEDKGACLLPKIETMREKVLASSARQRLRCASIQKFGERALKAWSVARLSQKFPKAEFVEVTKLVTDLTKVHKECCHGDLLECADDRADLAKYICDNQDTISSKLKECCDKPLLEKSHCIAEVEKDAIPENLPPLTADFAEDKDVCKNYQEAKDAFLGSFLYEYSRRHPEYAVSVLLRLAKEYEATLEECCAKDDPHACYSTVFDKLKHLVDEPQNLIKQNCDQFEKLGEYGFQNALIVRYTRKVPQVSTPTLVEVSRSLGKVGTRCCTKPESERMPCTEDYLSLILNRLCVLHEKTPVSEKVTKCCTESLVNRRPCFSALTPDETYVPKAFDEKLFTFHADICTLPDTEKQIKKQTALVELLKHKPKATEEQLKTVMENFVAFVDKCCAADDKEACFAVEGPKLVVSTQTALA
Experimental: The protein-binding studies were performed by tryptophan fluorescence quenching experiments using bovine serum albumin (BSA) from Sigma Aldrich prepared in 10 mM Tris-HCl buffer pH 7.4, 10 mM NaCl. The concentration was determined by measuring the absorbance at 280 nm. Assuming a molecular weight of 66,400 and a molar extinction coefficient at 280 nm of 43,824 M^−1 cm^−1. Fluorescence measurements were recorded on a Hitachi 4,500 spectrofluorometer by keeping the concentration of BSA constant (15 × 10^−6 M) while increasing compounds 5 or 6 concentrations (5 mM in DMSO) were added to protein solution at room temperatures. Protein fluorescence intensity was recorded after each successive addition of gold compound solution and equilibration (ca. 5 min). Fluorescence spectra were recorded from 300 to 450 nm at an excitation wavelength of 285 nm. The value of Stern Volmer constants of the different metal complexes to BSA was evaluated following Equation 3 and fluorescent values were corrected by Equation 2.
Protein fluorescence intensity was recorded after each successive addition of complex solution and equilibration (ca. 5 min). Fluorescence spectra were recorded from 300 to 450 nm at an excitation wavelength of 285 nm. The value of Stern Volmer constants of the different metal complexes to BSA were evaluated following the equation 3 and fluorescent values were corrected by equation 2.

Substance | IC50 (MDA-MB231 cells) [µM] | activity against BLBC tumors transplanted in syngeneic mice compared with cisplatin (BLBC tumors) | IC50 (SKBR3 cells) [µM] | cytotoxic activity in MTT screening (SKBR3 cells) | ATF Ksv (Human apoTF (ATF)) | DAPI-ct-DNA Ksv (DAPI-ct-DNA complex) | BSA Ksv [1]
4,5-dichloro-imidazolate-1yl-gold(I)-(triphenylphosphane) [Compound 6] | 3.46 ± 0.29 | much more active than cisplatin | 4.55 ± 0.25 | most active | 1.51 ± 0.55 10^4 M^−1 | 4.98 ± 0.08 10^3 M^−1 | 2.04 ± 0.71 10^4 M^−1
4,5-dicyano-imidazolate-1yl-gold(I)-(triphenylphosphane) [Compound 5] | 7.03 ± 0.76 | much more active than cisplatin | 5.36 ± 0.35 | most active | 1.93 ± 0.44 10^4 M^−1 | 6.12 ± 0.09 10^3 M^−1 | 2.46 ± 0.82 10^4 M^−1
